# Reference: patent publication US20220202827A1, “Enhancement of Melanocyte Migration Using ROCK Inhibitors” (The General Hospital Corporation, priority 2019, published 2022)
# Legend:
# Format in all cases: cell-based, human
# primary melanocytes = assay: Yield of primary melanocytes from dissociated epidermis cultured in TIVA ± Y-27632
# Method: Foreskin tissues were trimmed to remove the fat layer and then incubated with Dispase solution (2.5 mg/ml in PBS, overnight at 4° C.). On the second day, the epidermis was peeled from the dermis with fine forceps and chopped into small pieces, incubated with 0.05% trypsin for 15-30 min, neutralized with 10% FBS in DMEM, filtered ([…], Millipore), centrifuged, and rinsed with PBS. In the conventional method of melanocyte isolation, the epidermal cells were plated into culture vessels with melanocyte culture medium TIVA (Ham's F12, Mediatech, Inc., Herndon, Va., USA; 10% fetal bovine serum; 1× penicillin/streptomycin/glutamine, Invitrogen, Carlsbad, Calif., USA; 1×10^−4 M 3-isobutyl-1-methyl xanthine (IBMX), Sigma, St Louis, Mo., USA; 50 ng/ml 12-O-tetradecanoyl phorbol-13-acetate (TPA), Sigma; 2 μM Na3VO4; 1×10^−3 M N^6,2′-O-dibutyryladenosine 3′,5′-cyclic monophosphate (dbcAMP), Sigma) (Halaban et al., 2000; Yokoyama et al., 2008). The culture medium was changed once every 2 days until confluency was reached. For the new method, the isolated melanocytes were seeded with TIVA medium plus 10 μM Y-27632 (Y0503, Sigma) for two days, then the culture medium was replaced with standard TIVA without Y-27632 every 2 days, as in the conventional method. […] For isolation of keratinocytes, the dissociated epidermal cells were seeded with keratinocyte culture medium (K-SFM, Gibco/Thermo Fisher Scientific, Waltham, Mass., USA) into culture dishes pretreated with coating matrix containing type-I collagen (Gibco, R-011-K) and the medium was changed every 2 days. In order to understand the role of Y-27632 in promoting melanocyte growth, different media were used in different experiments depending on the experimental needs; information about the medium and protocol used for each experiment is listed in the following table.
# To test whether Y-27632 can enhance the yield of primary melanocytes, dissociated cells isolated from epidermis were plated with melanocyte culture medium (TWA) containing 10 μM Y-27632 and incubated for 48 h, and then the medium was replaced with TIVA without Y-27632. […] The differences were significant at 5 or more days after plating, and at 16 days, about 5 times more melanocytes were recovered from Y-27632-treated cultures compared with untreated cultures. We further tested whether longer treatment with Y-27632 had the same effect.
# passage 3 melanocytes [1] = assay: Melanocyte proliferation in co-culture with keratinocytes in TIVA medium (cell counting); details: 24 h and 48 h
# Method: (§1) FIGS. 1A-C. Keratinocytes that survive culture in TWA medium with Y-27632 can enhance melanocyte growth through a paracrine signaling pathway. A. Equal numbers of pure passage 3 melanocytes were plated with TWA medium in 4 groups with addition(s) as indicated: 1) Y-27632 (10 μM) alone (Y in graph), 2) passage 3 keratinocytes alone (K), 3) keratinocytes and Y-27632 (10 μM) (K+Y), and 4) no addition (negative control, con). Relative fold changes in melanocyte proliferation compared to the negative control were determined by counting the number of melanocytes at 24 h and 48 h after plating. B. Conditioned TWA media were obtained from the 4 groups of passage 3 melanocyte cultures in (A) at 48 h after plating. Then, equal numbers of passage 3 melanocytes were plated in 4 groups, each with one of the conditioned medium. Relative fold changes in melanocyte proliferation compared to the negative control were determined by counting the number of melanocytes at 24 h and 48 h after plating. C. […]
# (§2) Therefore, we hypothesized that the surviving keratinocytes in TIVA medium with Y-27632 can promote proliferation of melanocytes by secreting growth factors into the medium. […] To identify potential growth factors, quantitative RT-PCR analysis was performed for expression of six factors that have been reported to be secreted by cultured human keratinocytes and could enhance melanocyte growth.
# passage 3 melanocytes [2] = assay: Melanocyte proliferation in conditioned TIVA media (cell counting)
# Method: as §1, §2
# SCF (KITLG) = assay: qRT-PCR analysis of SCF mRNA expression in keratinocytes
# Method: as §1, with “B. Conditioned TWA media were obtained from the 4 groups of passage 3 melanocyte cultures in (A) at 48 h after plating. Then, equal numbers of passage 3 melanocytes were plated in 4 groups, each with one of the conditioned medium.” left out, “plating.” for “plating. C.”
# FIGS. 2A-E. Y-27632 can increase SCF expression in keratinocytes, which can promote melanocyte growth. […] Relative fold changes in melanocyte proliferation compared to the control medium were determined by counting the numbers of melanocytes. *p<0.05, **p<0.01 compared with the control; #p<0.05 comparing the SCF-treated group with the IgG-treated group.
# Total RNA was extracted from cells using a QIAGEN RNeasy Plus Mini Kit (QIAGEN, Hilden, Germany) according to manufacturer's instructions. […] Data were acquired and analyzed with 7500 Fast System SDS software (Life Tedmologies, Grand Island, N.Y., USA). […]
# SCF = assay: Western blot analysis of SCF protein expression in keratinocytes; details: K-SFM with or without Y-27632 for 24, 48 or 72 h
# Method: FIGS. 2A-E. Y-27632 can increase SCF expression in keratinocytes, which can promote melanocyte growth. A. RT-PCR analysis of SCF mRNA expression in passage 3 keratinocytes grown in K-SFM with (Y) or without (con) Y-27632 for the indicated times. **p<0.01 comparing Y-treated with the corresponding control group. B. Western blot analysis of SCF protein expression with or without Y-27632 for 24, 48 or 72 h. C. RT-PCR analysis of SCF mRNA expression in keratinocytes grown in K-SFM with increasing concentrations of Y-27632 for 48 h. **p<0.01, ***p<0.005 comparing Y-27632-treated with untreated cells (0). D. gRT-PCR analysis of SCF mRNA expression in keratinocytes grown in K-SFM, 72 h after transfection of ROCK1 and ROCK2 siRNAs individually and together. **p<0.01 when compared with the control cells transfected with scramble siRNA (siCtrl). […] Relative fold changes in melanocyte proliferation compared to the control medium were determined by counting the numbers of melanocytes. *p<0.05, **p<0.01 compared with the control; #p<0.05 comparing the SCF-treated group with the IgG-treated group.
# To test whether Y-27632 can enhance expression of SCF in keratinocytes, we cultured keratinocytes in the keratinocyte culture condition (K-SFM) with or without Y-27632 and measured SCF expression.
# passage 3 melanocytes [3] = assay: Melanocyte proliferation in conditioned K-SFM media from keratinocytes ± Y-27632, ± SCF antibody; details: K-SFM conditioned 48 h by keratinocytes with Y-27632; melanocytes cultured 48 h
# Method: FIGS. 2A-E. Y-27632 can increase SCF expression in keratinocytes, which can promote melanocyte growth. A. RT-PCR analysis of SCF mRNA expression in passage 3 keratinocytes grown in K-SFM with (Y) or without (con) Y-27632 for the indicated times. **p<0.01 comparing Y-treated with the corresponding control group. B. Western blot analysis of SCF protein expression with or without Y-27632 for 24, 48 or 72 h. C. RT-PCR analysis of SCF mRNA expression in keratinocytes grown in K-SFM with increasing concentrations of Y-27632 for 48 h. **p<0.01, ***p<0.005 comparing Y-27632-treated with untreated cells (0). D. gRT-PCR analysis of SCF mRNA expression in keratinocytes grown in K-SFM, 72 h after transfection of ROCK1 and ROCK2 siRNAs individually and together. **p<0.01 when compared with the control cells transfected with scramble siRNA (siCtrl). E. Passage 3 keratinocytes were cultured in K-SFM with or without 1′-27632 for 48 h, and then the conditioned media were collected. […] Relative fold changes in melanocyte proliferation compared to the control medium were determined by counting the numbers of melanocytes. *p<0.05, **p<0.01 compared with the control; #p<0.05 comparing the SCF-treated group with the IgG-treated group. […]
# melanocytes = assay: Transwell migration assay of melanocytes
# Method: A. Representative images of migrated melanocytes (dark grey) in the transwell migration assay with different conditions as indicated. […] C. The transwell migration assay was performed under the indicated conditions. ROCKi: Rock inhibitor Y-27632 (10 μM), SIKi: SIK inhibitors with different concentrations as indicated.
# To test the effect of Y-27632 on melanocyte cell migration, 1×10^5 cells were cultured in the upper chamber of a transwell migration apparatus. The lower chamber was supplemented either with 254 (melanocyte culture medium) without FBS (control) or 254 media plus seeding human keratinocytes (HKC) in the bottom or 254 medium with […] Y-27632 plus seeding keratinocytes in the bottom (Y-27632+HKC) or 254 medium in the presence of 1% FBS. The chambers were incubated for 24 hours at 37° C. After removal of non-migrated cells on top of the filter, cells that had migrated through the membrane were fixed in 4% paraformaldehyde washed and then stained with 0.1% crystal violet (FIG. 3A). The number of cells that had migrated through the membrane was counted in six randomly selected high-power microscopic fields and the average number of cells were shown in FIG. 3B. […]
smiles,measurement,setting,value
"C[C@@H](N)[C@H]1CC[C@H](C(=O)Nc2ccncc2)CC1.Cl.Cl [Y-27632, (+)-(R)-trans-4-(1-aminoethyl)-N-(4-pyridyl)cyclohexanecarboxamide dihydrochloride]",melanocytes recovered compared with untreated cultures,"primary melanocytes; 10 μM Y-27632 for first 48 h, at 16 days",about 5 times
same,duration of treatment generating the highest yield of melanocytes,"primary melanocytes; continuous treatment with Y-27632, incubation until Day 12",4 days
same,yield of melanocytes relative to the untreated group,primary melanocytes; continuous treatment with Y-27632 for up to 12 days,increased the yield of melanocytes relative to the untreated group
same,melanocytes observed in treated versus untreated cultures,"primary melanocytes; dissociated epidermal cells, TIVA with 10 μM Y-27632 for 48 h, then TIVA alone, differences significant at 5 or more days after plating",more melanocytes in cultures treated with Y-27632 than in cultures without Y-27632
same,growth of melanocytes,"passage 3 melanocytes [1]; Y-27632 (10 μM) alone, no keratinocytes",neither Y-27632 alone nor keratinocytes medium alone could promote the growth of melanocytes
same,melanocyte proliferation,passage 3 melanocytes [1]; keratinocytes and Y-27632 (10 μM) (K+Y),could significantly increase melanocyte proliferation
same,melanocyte proliferation,passage 3 melanocytes [2]; conditioned medium from cultures of keratinocytes in TIVA+Y-27632,significantly enhanced melanocyte proliferation
same,melanocyte proliferation,passage 3 melanocytes [2]; conditioned medium from cultures of melanocytes with TIVA and Y-27632 alone,did not increase melanocyte proliferation
same,SCF mRNA level in keratinocytes,SCF (KITLG); passage 3 keratinocytes in K-SFM with or without Y-27632,can increase both mRNA and protein levels of SCF
same,expression of six melanocyte growth-enhancing factors (RT-PCR),"SCF (KITLG); passage 3 keratinocytes in TIVA+Y-27632, 0-48 h",only SCF (KITLG) expression increased significantly
same,SCF protein level in keratinocytes,SCF,can increase both mRNA and protein levels of SCF
same,melanocyte growth with conditioned medium,passage 3 melanocytes [3],enhancement of melanocyte growth
same,melanocyte migration,"melanocytes; ROCKi (10 uM Y-27632), SIKi at different concentrations, alone or combined (FIG. 3C)",could enhances melanocyte migration
same,migration of melanocytes through the membrane,"melanocytes; lower chamber: 254 medium with 10 μM Y-27632 plus keratinocytes (HKC), 24 hours",significantly induced the migration of melanocytes
